Test results as given in publication PMC10287695, “Non-covalent inhibitors of thioredoxin glutathione reductase with schistosomicidal activity in vivo” (Nature Communications, 2023).
Where “and” joins values, the source holds several entries; their conditions need not be identical. Equal values may be shown once. Read-outs that look alike come from different tables or passages of the source.

How the values were obtained:
[1] = Cytotoxicity in mammalian cells (Cell Titer Glo); format: cell-based; conditions: African green monkey, Vero cells; for viability at 24 h, 5 µM: Conc. 5 µM; for viability at 24 h, 10 µM: Conc. 10 µM; for viability at 24 h, 25 µM: Conc. 25 µM; for viability at 24 h, 35 µM: Conc. 35 µM; for viability at 24 h, 50 µM: Conc. 50 µM
Protocol: Following overnight incubation, formulated DMSO-compound stock solutions were diluted with DMEM at <1% DMSO final concentrations. […] Vero cells treated similarly with different concentrations of PZQ, MZM and AF (Cayman Chemicals) were used as positive controls.

BmTrxR = BmTrxR (Brugia malayi, UniProt A0A1I9G0T9); test: B. malayi TrxR enzyme inhibition; format: biochemical; conditions: for inhibition at 10 µM: 10 µM compound; for inhibition at 25 µM: 25 µM compound
Protocol: Recombinant TGR, human TrxR1, B. malayi (Bm)TrxR and human GR proteins were expressed and purified as described[20],[69],[79]. The codon optimized sequence for P. falciparum (PfTrxR, https://www.ncbi.nlm.nih.gov/protein/CAA60574.1/) with an N-terminal 6-His tag was synthesized and inserted into pET15b (GenScript) and expressed in BL21 (DE3) cells and purified as described for human GR[20]. […] The reaction was started with addition of an equal volume of DTNB (6 mM) and NADPH (100 µM) and the increase in A412 during the first 3 min was recorded. […] Activity was initiated with the addition of 1 mM GSSG and 100 μM NADPH and initial rates of NADPH oxidation were monitored at 340 nm. The reactions were done in triplicate. The IC50 was calculated in GraphPad Prism.

[2] = test system: S. mansoni juvenile worms in mice; test: Schistosomicidal efficacy in infected mice, juvenile worms (21 d.p.i.); format: in vivo; conditions: for Egg burden, Treated, individual mice / Worm burden, Treated, individual mice: Juvenile worm; for Egg burden, Treated, individual mice: eggs per 50 mg liver (Fig. 6); for decrease in egg burden / decrease in worm burden: mice
Protocol: (§1) To assess the efficacy of the compounds in vivo against juvenile and adult worms, five female Swiss-Webster mice were randomly assigned for the control and experiment groups using a randomization tool embedded in GraphPad Prism. Mice were percutaneously exposed for 1 h to about 80 S. mansoni cercariae. Three- and six-weeks post infection, respectively, for juvenile and adult worms, mice were treated depending on their weight with formulations of the compounds, while the control mice received only the vehicle. Compounds were formulated with 10% DMSO and 10% Tween-80, and vortexed to obtain a uniform mixture. The mixture was sonicated twice for 5 min each time using a digital ultrasonic cleaner heated to 50 °C. Sodium chloride 0.9% (80% normal saline) was added to the mixture, briefly vortexed and sonicated one more time using the same conditions as previous. The investigators were blinded by which group of mice received a treatment and the vehicle, as injection was done by technicians from the Comparative Research Center of Rush University Medical Center. Using a 26 G, 3/8 in intradermal bevel needle, each mouse was administered intraperitoneally with 100 µl of the formulated compound suspension at 50 mg/kg, 100 mg/kg and 200 mg/kg. Mice treated three weeks post infection for juvenile worms were euthanized three weeks post treatment and mice treated six weeks post infection were euthanized one week post treatment with 0.018 ml of Euthasol and 5.85 mg/ml heparin and perfused. The mesenteric and hepatic portal veins of the mice were carefully scanned under the microscope to extract any remaining S. mansoni adult worms and worm burdens were determined. Egg burden was determined by weighing 50 mg of liver tissue from each of treated and control mice. The liver tissues were digested with 5% KOH at 37 °C overnight and washed twice with PBS. The number of eggs per 50 mg of liver tissue was determined using a Keyence BZ-X800 microscope using the egg autofluorescence.

[3] = test system: S. mansoni adult worms in mice; test: Schistosomicidal efficacy in infected mice, adult worms (42 d.p.i.); format: in vivo; conditions: for Egg burden, Treated, individual mice / Worm burden, Treated, individual mice: Adult worm; for Egg burden, Treated, individual mice: eggs per 50 mg liver (Fig. 6); for decrease in egg burden / decrease in worm burden: mice
Protocol: as §1

TGR = molecular target: T1, TGR (Schistosoma mansoni, UniProt Q962Y6); test: Thermal shift assay (TSA); format: binding; design: key to Avg. Tm / Tm, replicate 1-3: Tm in °C, from a 25–95 °C melt curve
T1 construct: made in house
T1 sequence (Q962Y6 1-598): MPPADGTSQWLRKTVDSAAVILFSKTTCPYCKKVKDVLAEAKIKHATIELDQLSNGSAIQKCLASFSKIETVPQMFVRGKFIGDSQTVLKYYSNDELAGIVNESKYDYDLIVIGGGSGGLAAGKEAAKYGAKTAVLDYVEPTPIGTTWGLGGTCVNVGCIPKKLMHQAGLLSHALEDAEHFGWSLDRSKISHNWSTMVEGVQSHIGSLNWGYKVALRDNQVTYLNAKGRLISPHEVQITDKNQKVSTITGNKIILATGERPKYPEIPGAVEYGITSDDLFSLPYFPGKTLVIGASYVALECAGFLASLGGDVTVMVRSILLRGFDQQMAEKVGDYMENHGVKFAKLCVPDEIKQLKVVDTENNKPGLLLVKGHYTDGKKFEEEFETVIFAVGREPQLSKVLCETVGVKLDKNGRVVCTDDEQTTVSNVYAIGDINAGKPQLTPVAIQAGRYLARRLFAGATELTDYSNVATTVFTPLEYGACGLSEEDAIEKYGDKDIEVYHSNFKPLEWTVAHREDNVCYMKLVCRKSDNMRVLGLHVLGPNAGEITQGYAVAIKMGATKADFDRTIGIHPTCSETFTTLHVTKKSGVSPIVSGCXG
Protocol: Samples were prepared by using a final concentration of 0.25 mg/ml TGR diluted in TGR reaction buffer to the desired volume. To evaluate reduced TGR, 500 µM NADPH was added. […] After the preincubation period, 20 µL samples were pipetted into a BioRad un-skirted PCR 96 well plate and sealed with MicroAmp^TM Optical Adhesive film. The plate was then centrifuged for 5 min at 1000 × g. TSA was carried out using a BioRad CFX Connect qPCR instrument with a melt curve setting of 25 − 95 °C, in increments of 0.5 °C/10 seconds. The SYBR green channel was used to detect fluorescence as the wavelength of flavin fluorescence overlaps with that of SYBR green. BioRad CFX Maestro 5.2 was used to analyze TSA data.

[4] = BmTrxR, mean of 3 replicates, read-out: % inhibition
[5] = BmTrxR, 50 µM compound, mean of 3 replicates, read-out: % inhibition
[6] = 2 x 100 mg/kg at 21 d.p.i. (juvenile worms)
[7] = 1 x 100 mg/kg i.p. at 42 d.p.i.
[8] = 2 x 100 mg/kg i.p. (1: bid at 42 d.p.i.; 6: at 42 and 45 d.p.i.)
[9] = 1 x 100 mg/kg, listed as 8VP101
[10] = 1 x 100 mg/kg at 21 d.p.i. (juvenile worms)
[11] = 2 x 50 mg/kg i.p. at 42 and 45 d.p.i.
[12] = 2 x 100 mg/kg, listed as 8VP192
[13] = 1 x 100 mg/kg, listed as 8VP192

Sequence of BmTrxR (A0A1I9G0T9 entry or part of it, added parts left off): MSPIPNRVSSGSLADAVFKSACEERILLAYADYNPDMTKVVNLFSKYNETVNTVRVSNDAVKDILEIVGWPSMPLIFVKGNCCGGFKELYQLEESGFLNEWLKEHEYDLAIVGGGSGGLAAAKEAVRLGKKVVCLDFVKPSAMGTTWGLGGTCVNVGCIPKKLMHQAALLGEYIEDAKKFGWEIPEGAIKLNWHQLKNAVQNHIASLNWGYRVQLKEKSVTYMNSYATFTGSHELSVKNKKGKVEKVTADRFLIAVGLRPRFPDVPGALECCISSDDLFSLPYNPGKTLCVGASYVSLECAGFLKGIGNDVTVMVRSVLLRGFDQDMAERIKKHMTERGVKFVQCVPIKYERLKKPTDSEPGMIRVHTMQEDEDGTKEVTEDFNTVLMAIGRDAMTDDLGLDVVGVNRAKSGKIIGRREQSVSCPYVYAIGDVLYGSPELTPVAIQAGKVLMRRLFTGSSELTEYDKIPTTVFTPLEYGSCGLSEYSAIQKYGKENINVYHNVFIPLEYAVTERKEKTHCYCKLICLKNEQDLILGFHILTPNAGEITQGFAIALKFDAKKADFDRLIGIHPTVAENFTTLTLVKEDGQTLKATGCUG

Compound | viability at 24 h, 5 µM [1] | viability at 24 h, 10 µM [1] | viability at 24 h, 25 µM [1] | viability at 24 h, 35 µM [1] | viability at 24 h, 50 µM [1] | inhibition at 10 µM (BmTrxR; [4]) | inhibition at 25 µM (BmTrxR; [4]) | inhibition at 50 µM (BmTrxR; [5]) | decrease in egg burden [2, 6] | decrease in worm burden [2, 6] | decrease in egg burden [3, 7] | decrease in worm burden [3, 7] | decrease in egg burden [3, 8] | decrease in worm burden [3, 8] | other results
Cc1oc(-c2ccc3c(c2)OCO3)nc1CN[C@@H]1C[C@@H]2C[C@H]([C@H]1C)C2(C)C [Compound 1] | 94.7% | 94.6% | 94.3% | 83.3% | 72.5% | 22.5% | 40.6% | 77.5% | 31% | 28.2% and 28% | 40% and 40.5% | 44% and 43.5% | 48% and 47.5% | 54% and 53.6% | IC50 (BmTrxR): 37 ± 3.04 µM; Egg burden, Treated, individual mice ([2]; 2 x 100 mg/kg, listed as 8VP70): 1567 and 1683 and 1698 and 1583 and 1670; Worm burden, Treated, individual mice ([2]; 2 x 100 mg/kg, listed as 8VP70): 21 and 22 and 19 and 20; Egg burden, Treated, individual mice ([3]; 1 x 100 mg/kg, listed as 8VP70): 1302 and 1436 and 1582 and 1478 and 1434; Worm burden, Treated, individual mice ([3]; 1 x 100 mg/kg, listed as 8VP70): 15 and 16 and 12; Egg burden, Treated, individual mice ([3]; 2 x 100 mg/kg, listed as 8VP70): 1572 and 1426 and 1565 and 1335 and 1329; Worm burden, Treated, individual mice ([3]; 2 x 100 mg/kg, listed as 8VP70): 12 and 10 and 9 and 8; Avg. Tm (TGR; TGR + 100 µM compound): 73.67; Avg. Tm, + 500 µM NADPH (TGR; TGR + 100 µM compound + 500 µM NADPH): 73.5; Tm, replicate 1-3, + 500 µM NADPH (TGR; TGR + 100 µM compound + 500 µM NADPH, single replicates, in °C (unit assumed)): 73.5; Tm, replicate 1-3 (TGR; TGR + 100 µM compound, single replicates): 73.5 (2×) and 74; effect on Tm of oxidized TGR (TGR; without NADPH): Neither fast 6-9 nor slow TGR inhibitors 1, 3, 5 affected the Tm
CCc1ccccc1-c1nc(CN[C@@H]2C[C@@H]3C[C@H]([C@H]2C)C3(C)C)c(C)o1 [Compound 2] | 99.8% | 98.9% | 95.6% | 75.4% | 53.1% | 0.63% | 5.59% | 12.9% |  |  | 73% and 73.3% | 85% and 85.2% |  |  | inhibition at 50 µM (BmTrxR; read-out: BmTrxR % inhibition at 50 µM, 50 µM, the highest concentration tested): 13%; Egg burden, Treated, individual mice [2, 9]: 986 and 1201 and 968 and 1001 and 988; Worm burden, Treated, individual mice [2, 9]: 12 and 13 and 11 and 8; ED50 ([2]; Schistosoma mansoni, 504 h, based on the single dose tested, 21 d.p.i., read-out: estimated ED50 against juvenile worms): < 100 mg/kg; decrease in egg burden [2, 10]: 56.7% and 57%; decrease in worm burden [2, 10]: 61.3% and 61% and > 60%; Egg burden, Treated, individual mice [3, 9]: 296 and 301 and 311 and 299 and 321; Worm burden, Treated, individual mice [3, 9]: 8 and 6 and 4 and 5; Egg burden, Treated, individual mice ([3]; 2 x 50 mg/kg, listed as 8VP101): 319 and 335 and 372 and 393 and 436; Worm burden, Treated, individual mice ([3]; 2 x 50 mg/kg, listed as 8VP101): 5 and 10 and 8 and 4 and 3; decrease in egg burden [3, 11]: 69% and 68.8%; decrease in worm burden [3, 11]: 43% and 42.9%
C#CCN(Cc1nc(-c2ccccc2)oc1C)[C@@H]1C[C@@H]2C[C@H]([C@H]1C)C2(C)C [Compound 6] | 99% | 91.1% | 86.8% |  | 79.9% |  |  |  | 6.8% and 7% | 15.5% and 16% | 3% and 2.8% | 34% and 33.9% | 18% and 18.2% | 38% and 38.39% | viability at 24 h, 1 µM ([1]; Conc. 1 µM): 99.1%; viability at 24 h, 100 µM ([1]; Conc. 100 µM): 63.9%; Egg burden, Treated, individual mice [2, 12]: 2214 and 2212 and 2241 and 2153 and 2264; Worm burden, Treated, individual mice [2, 12]: 28 and 25 and 23 and 18 and 26; Egg burden, Treated, individual mice [3, 13]: 2001 and 2098 and 2074 and 2073; Worm burden, Treated, individual mice [3, 13]: 18 and 19 and 11 and 14 and 12; Egg burden, Treated, individual mice [3, 12]: 2011 and 2073 and 2001 and 2098 and 2074; Worm burden, Treated, individual mice [3, 12]: 23 and 26 and 25 and 20 and 22
